According to paper PMC8955853, “New Sorbicillinoids with Tea Pathogenic Fungus Inhibitory Effect from Marine-Derived Fungus Hypocrea jecorina H8” (Marine Drugs, 2022):
≈ marks a conversion by molar mass, not a printed value. Entries after “also recorded” stand apart in the source; their conditions may differ. Read-outs that look alike come from different tables or passages of the source.

Experiments:
[1] = system: Pestalotiopsis theae; assay: Antifungal activity assay, growth inhibition of tea pathogenic fungus; assay type: cell-based; details: for IC50: Pseudopestalotiopsis theae, read-out: ED50, antifungal activity against Pestalotiopsis theae; for fold stronger anti-tea pathogenic fungus effect than hexaconazole: compared to positive control hexaconazole (24.25 ± 1.57 µg/mL)
Description: Compounds 1 to 11 were evaluated for antifungal activities by a paper disc inhibition assay.
Initial evaluations of the antifungal activity of the purified compounds were conducted against tea pathogenic fungus P. theae in six-well microplates as described by Xia Yan with certain modifications. The final concentrations of each compound in the wells were 80, 40, 20, 10, 5, and 2.5 µg/mL (two-fold dilutions). DMSO and hexaconazole were used as a blank control and positive control, respectively. The ED50 (μg/mL) values were calculated statistically using Probit analyses.

[2] = system: zebrafish embryos; assay: Zebrafish embryotoxicity and developmental toxicity assay; assay type: in vivo; details: for effects on mortality rate and malformation of zebrafish: 0.625 μM for 24 h and 10 μM for 72 h (Figure 4c); for change of effect on zebrafish embryo mortality when treatment prolonged to 72 h: 72 h versus 24 h (Figure 4b)
Description: Figure 4 Embryotoxicity and developmental toxicity assay; 15 zebrafish embryos per condition were exposed to compounds at the concentrations of 10, 5, 2.5, 1.25, and 0.625 μM, and 0.1% DMSO was used as blank control. (a) The mortality rate of 24 embryo treated with compounds; (b) The mortality rate of 72 embryo treated with compounds; (c) The impact on the malformation of zebrafish treated with compounds) The statistics of 24 and 72 h mortality rate; © Morphology of 24 h embryo or 72 h zebrafish larvae treated with compounds or control.
Wild-type (AB strain) zebra fish (Danio rerio) were used in this test. Compounds 5, 6, 8, 9, and 10 were dissolved in DMSO (10 mM) and stored at −20 °C. Toxicity evaluations were analyzed regarding the anti-proliferative effects on embryos according to the literature. In brief, 15 zebrafish embryos per condition were exposed to compounds at the concentrations of 10, 5, 2.5, 1.25, and 0.625 μM, and 0.1% DMSO was used as the vehicle control. A Leica stereomicroscope was used to observe the embryos every 24 h.

[3] = tested at 80, 40, 20, 10, 5 and 2.5 µg/mL, Probit analysis

| Molecule | IC50 [1, 3] | change of effect on zebrafish embryo mortality when treatment prolonged to 72 h [2] | also measured |
| --- | --- | --- | --- |
| CCC12C(=O)OC(C)(C(=O)C(C)=C1CC(C)=O)C2CC(=O)C=CC=CCO (stereo not drawn) [Compound 1, trichodermolide C] | > 100 µg/mL |  |  |
| CC=CC=CC(O)CC1C2(C)OC(=O)C1(CC)C(CC(C)O)=C(C)C2=O (stereo not drawn) [Compound 2, trichodermolide D] | > 100 µg/mL |  |  |
| CC=CC=CC(O)=C1C(=O)C2(C)C3C(=C(O)CC(O)C=CC)C(=O)C4(C)C1C1(C)OC4(O)C3(C)OC12O (stereo not drawn) [Compound 3, 7,7′,9′-hydroxy-trichodimerol] |  |  | IC50 [1]: > 100 µg/mL |
| Cc1cc(C(=O)CC(O)C(O)C(C)O)c(O)c(C)c1O (stereo not drawn) [Compound 4, 1-(2,4-dihydroxy-3,5-dimethylphenyl)-3,4,5-trihydroxyhexan-1-one] | > 100 µg/mL |  |  |
| CC=CC=CC(O)=C1CC(C)(O)C2(O)OC3(C)C(O)=C(C)C(=O)C(=C(O)C=CC=CC)C3C2(C)C1=O (stereo not drawn) [Compound 5, isobisvertinol A] | 9.13 ± 1.25 µg/mL (≈ 18.3 µM) | did not change greatly | fold stronger anti-tea pathogenic fungus effect than hexaconazole [1]: ~3 fold; effects on mortality rate and malformation of zebrafish [2]: greater effects than other compounds |
| C/C=C/CCC(=O)c1cc(C)c(O)c(C)c1O [Compound 6, 2′,3′-dihydrosorbicillin] | 2.04 ± 1.24 µg/mL (≈ 8.71 µM) | did not change greatly |  |
| C/C=C/C=C/C(=O)c1cc(C)c(O)cc1O [Compound 7, 6-demethylsorbicillin] | > 100 µg/mL |  |  |
| C/C=C/C=C/C(=O)c1cc(C)c(O)c(C)c1O [Compound 8, sorbicillin] | 18.2 ± 1.29 µg/mL (≈ 78.4 µM) |  | zebrafish embryos killed ([2]; 0.625 μM for 24 h): more than 50%; effects on mortality rate and malformation of zebrafish [2]: greater effects than other compounds; mortality rate of zebrafish embryo ([2]; 0.625 μM, 72 h (Figure 4b)): ~60%; zebrafish embryos killed ([2]; 10 μM for 72 h): more than 50% |
| Cc1cc(C(=O)/C=C/C=C/CO)c(O)c(C)c1O [Compound 9, (2E,4E)-1-(2,4-dihydroxy-3,5-dimethylphenyl)-6-hydroxyhexa-2,4-dien-1-one] | 1.83 ± 1.37 µg/mL (≈ 7.37 µM) | did not change greatly | fold stronger anti-tea pathogenic fungus effect than hexaconazole [1]: 13 fold |
| C/C=C/C=C/C(O)=C1\C[C@](C)(O)[C@]2(O)O[C@]3(C)C(O)=C(C)C(=O)/C(=C(O)/C=C/C=C/C)[C@@H]3[C@]2(C)C1=O [Compound 11, bisvertinol] | > 100 µg/mL |  |  |
| CCCCC(O)(Cn1cncn1)c1ccc(Cl)cc1Cl (stereo not drawn) [hexaconazole, reference compound] | 24.2 ± 1.57 µg/mL (≈ 77.2 µM) |  |  |
| trichodimerol [Compound 10] |  | did not change greatly | ED50, antifungal activity against Pestalotiopsis theae [1, 3]: 4.68 ± 1.44 µg/mL; toxicity to zebrafish eggs, embryos or larvae (overall, in words) ([2]; 10, 5, 2.5, 1.25 and 0.625 μM, observed every 24 h): low toxicity; also recorded: much lower toxicity |
